# Measured values as given in PubChem BioAssay (NCI).
#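 GI50: concentration for 50% inhibition of growth. The concentration for full growth arrest is given as TGI.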
# Legend:
# Test in all cases: growth of human tumour cells (NCI), 384-well format
# A549 NSCLC = test system: A549 NSCLC
# RXF 393 renal = test system: RXF 393 renal
# SW-620 colon = test system: SW-620 colon
# OVCAR-4 ovarian = test system: OVCAR-4 ovarian
# BT-549 breast = test system: BT-549 breast
# MDA-MB-435 melanoma = test system: MDA-MB-435 melanoma
# MCF7 breast = test system: MCF7 breast
# HT29 colon = test system: HT29 colon
# KM12 colon = test system: KM12 colon
# NCI-H522 lung = test system: NCI-H522 lung
# HS 578T breast = test system: HS 578T breast
# NCI-H226 lung = test system: NCI-H226 lung
# IGROV1 ovarian = test system: IGROV1 ovarian
# NCI-H322M lung = test system: NCI-H322M lung
# SK-MEL-28 melanoma = test system: SK-MEL-28 melanoma
# A498 renal = test system: A498 renal
# DU-145 prostate = test system: DU-145 prostate
# 786-0 renal = test system: 786-0 renal
# NCI-H460 NSCLC = test system: NCI-H460 NSCLC
# HOP-62 NSCLC = test system: HOP-62 NSCLC
# RPMI-8226 leukemia = test system: RPMI-8226 leukemia
# OVCAR-8 ovarian = test system: OVCAR-8 ovarian
# LOX IMVI melanoma = test system: LOX IMVI melanoma
# UACC-257 melanoma = test system: UACC-257 melanoma
# SN12C renal = test system: SN12C renal
# MOLT-4 leukemia = test system: MOLT-4 leukemia
# MDA-MB-231 breast = test system: MDA-MB-231 breast
# COLO 205 colon = test system: COLO 205 colon
# MDA-MB-468 breast = test system: MDA-MB-468 breast
# ACHN renal = test system: ACHN renal
# U251 glioblastoma = test system: U251 glioblastoma
# HCT-15 colon = test system: HCT-15 colon
# CCRF-CEM leukemia = test system: CCRF-CEM leukemia
# TK-10 renal = test system: TK-10 renal
# PC-3 prostate = test system: PC-3 prostate
# HCT-116 colon = test system: HCT-116 colon
# SK-OV-3 ovarian = test system: SK-OV-3 ovarian
# CAKI-1 renal = test system: CAKI-1 renal
# M14 melanoma = test system: M14 melanoma
# SK-MEL-5 melanoma = test system: SK-MEL-5 melanoma
# SR leukemia = test system: SR leukemia
# SF-539 CNS = test system: SF-539 CNS
# K-562 leukemia = test system: K-562 leukemia
# MALME-3M melanoma = test system: MALME-3M melanoma
# UO-31 renal = test system: UO-31 renal
# NCI/ADR-RES ovarian = test system: NCI/ADR-RES ovarian
# SF-268 CNS = test system: SF-268 CNS
# SNB-19 CNS = test system: SNB-19 CNS
# OVCAR-3 ovarian = test system: OVCAR-3 ovarian
# SNB-75 CNS = test system: SNB-75 CNS
# SF-295 CNS = test system: SF-295 CNS
# OVCAR-5 ovarian = test system: OVCAR-5 ovarian
# T-47D breast = test system: T-47D breast
# HOP-92 NSCLC = test system: HOP-92 NSCLC
# EKVX NSCLC = test system: EKVX NSCLC
# NCI-H23 lung = test system: NCI-H23 lung
smiles,measurement,setting,value
C[C@H]1CNC(=O)c2cnn3ccc(nc23)N[C@H](C)c2cc(F)ccc2O1,GI50,A549 NSCLC,439 nM
same,TGI,A549 NSCLC,10800 nM
same,GI50,RXF 393 renal,187 nM
same,TGI,RXF 393 renal,498 nM
same,GI50,SW-620 colon,444 nM
same,TGI,SW-620 colon,2850 nM
same,GI50,OVCAR-4 ovarian,687 nM
same,TGI,OVCAR-4 ovarian,7350 nM
same,GI50,BT-549 breast,1070 nM
same,TGI,BT-549 breast,2300 nM
same,GI50,MDA-MB-435 melanoma,16100 nM
same,TGI,MDA-MB-435 melanoma,49800 nM
same,GI50,MCF7 breast,429 nM
same,TGI,MCF7 breast,15200 nM
same,GI50,HT29 colon,776 nM
same,TGI,HT29 colon,13400 nM
same,TGI,KM12 colon,10100 nM
same,GI50,NCI-H522 lung,463 nM
same,TGI,NCI-H522 lung,2280 nM
same,GI50,HS 578T breast,249 nM
same,TGI,HS 578T breast,1250 nM
same,GI50,NCI-H226 lung,525 nM
same,TGI,NCI-H226 lung,2000 nM
same,GI50,IGROV1 ovarian,229 nM
same,TGI,IGROV1 ovarian,911 nM
same,GI50,NCI-H322M lung,1140 nM
same,TGI,NCI-H322M lung,6010 nM
same,GI50,SK-MEL-28 melanoma,17100 nM
same,TGI,SK-MEL-28 melanoma,77100 nM
same,GI50,A498 renal,779 nM
same,TGI,A498 renal,2100 nM
same,GI50,DU-145 prostate,1430 nM
same,TGI,DU-145 prostate,5040 nM
same,GI50,786-0 renal,1290 nM
same,TGI,786-0 renal,2660 nM
same,GI50,NCI-H460 NSCLC,391 nM
same,TGI,NCI-H460 NSCLC,1690 nM
same,GI50,HOP-62 NSCLC,1120 nM
same,TGI,HOP-62 NSCLC,2850 nM
same,GI50,RPMI-8226 leukemia,1610 nM
same,TGI,RPMI-8226 leukemia,3760 nM
same,GI50,OVCAR-8 ovarian,1650 nM
same,TGI,OVCAR-8 ovarian,4080 nM
same,GI50,LOX IMVI melanoma,428 nM
same,TGI,LOX IMVI melanoma,1450 nM
same,GI50,UACC-257 melanoma,12200 nM
same,TGI,UACC-257 melanoma,37400 nM
same,GI50,SN12C renal,664 nM
same,TGI,SN12C renal,2260 nM
same,GI50,MOLT-4 leukemia,180 nM
same,TGI,MOLT-4 leukemia,342 nM
same,GI50,MDA-MB-231 breast,433 nM
same,TGI,MDA-MB-231 breast,2460 nM
same,GI50,COLO 205 colon,1430 nM
same,TGI,COLO 205 colon,2930 nM
same,GI50,MDA-MB-468 breast,629 nM
same,TGI,MDA-MB-468 breast,2010 nM
same,GI50,ACHN renal,511 nM
same,TGI,ACHN renal,2650 nM
same,GI50,U251 glioblastoma,2290 nM
same,TGI,U251 glioblastoma,11400 nM
same,GI50,HCT-15 colon,1360 nM
same,TGI,HCT-15 colon,4600 nM
same,GI50,CCRF-CEM leukemia,189 nM
same,TGI,CCRF-CEM leukemia,345 nM
same,GI50,TK-10 renal,635 nM
same,TGI,TK-10 renal,2100 nM
same,GI50,PC-3 prostate,668 nM
same,TGI,PC-3 prostate,4010 nM
same,GI50,HCT-116 colon,477 nM
same,TGI,HCT-116 colon,11100 nM
same,GI50,SK-OV-3 ovarian,522 nM
same,TGI,SK-OV-3 ovarian,2930 nM
same,GI50,CAKI-1 renal,829 nM
same,TGI,CAKI-1 renal,2090 nM
same,GI50,M14 melanoma,31700 nM
same,TGI,M14 melanoma,> 100000 nM
same,GI50,SK-MEL-5 melanoma,6620 nM
same,TGI,SK-MEL-5 melanoma,20500 nM
same,GI50,SR leukemia,37.2 nM
same,TGI,SR leukemia,116 nM
same,GI50,SF-539 CNS,1020 nM
same,TGI,SF-539 CNS,2230 nM
same,GI50,K-562 leukemia,451 nM
same,TGI,K-562 leukemia,1850 nM
same,GI50,MALME-3M melanoma,4210 nM
same,TGI,MALME-3M melanoma,30000 nM
same,GI50,UO-31 renal,1360 nM
same,TGI,UO-31 renal,2800 nM
same,GI50,NCI/ADR-RES ovarian,10600 nM
same,TGI,NCI/ADR-RES ovarian,22600 nM
same,GI50,SF-268 CNS,374 nM
same,TGI,SF-268 CNS,1550 nM
same,GI50,SNB-19 CNS,1830 nM
same,TGI,SNB-19 CNS,7860 nM
same,GI50,OVCAR-3 ovarian,414 nM
same,TGI,OVCAR-3 ovarian,2030 nM
same,GI50,SNB-75 CNS,209 nM
same,TGI,SNB-75 CNS,816 nM
same,GI50,SF-295 CNS,243 nM
same,TGI,SF-295 CNS,1770 nM
same,GI50,OVCAR-5 ovarian,527 nM
same,TGI,OVCAR-5 ovarian,2910 nM
same,GI50,T-47D breast,1480 nM
same,TGI,T-47D breast,15800 nM
same,GI50,HOP-92 NSCLC,516 nM
same,TGI,HOP-92 NSCLC,1980 nM
same,GI50,EKVX NSCLC,469 nM
same,TGI,EKVX NSCLC,3820 nM
same,GI50,NCI-H23 lung,521 nM
same,TGI,NCI-H23 lung,6750 nM
